From patent publication US10357438B2, “Metal salt compositions” (Colgate-Palmolive Company, priority 2014, dated 2019) come the findings set out here.

For the series, the system named is five species, planktonic mix of representative oral species (Actinomyces viscosus, Lactobacillus casei, Streptococcus oralis, Fusobacterium nucleatum, and …). Put plainly: Resazurin bacterial inhibition assay. The note with it: 1% elemental Zn final concentration; 1 h incubation; resazurin fluorescence. The series is classed as cell-based. The text has this:
The antibacterial activity of the Zn2CitCl (dizinc citrate chloride) complex was compared against zinc citrate (ZnCit) using the resazurin bacterial inhibition assay. In order to test this hypothesis, we used an assay we have developed based on the metabolic indicator dye resazurin. […] A five species, planktonic mix of representative oral species is used in this assay (Actinomyces viscosus, Lactobacillus casei, Streptococcus oralis, Fusobacterium nucleatum, and Veillonella parvula). Bacteria are incubated with the test solution for 1 h prior to staining with 50 μg/ml of resazurin solution. When viable, metabolically active bacteria are incubated with resazurin, the blue, non-fluorescent dye is reduced by the bacteria to the pink fluorescent dye resrufin. Fluorescence of test samples are read at 560 nm excitation/590 nm emission and compared to the fluorescence of standard mixes of live and dead bacteria to determine the percentage of the initial population that remained viable following treatment. Samples were tested at a final concentration of 1% elemental Zn for each compound indicated.
For orientation: The colour change of resazurin is a common sign of viable cells or microbes.
As to basic sodium dizinc citrate chloride, the “% viability” value worked out at 3.3%.
The result for basic sodium zinc citrate reads 7.0%; that for sodium zinc citrate, 5.9%.
